Measured values reported in patent publication US6673549B1, “Genes expressed in C3A liver cell cultures treated with steroids” (Incyte Corporation, priority 2000, dated 2004).

System: human C3A liver cells
Assay: Microarray differential gene expression in human C3A liver cell cultures treated with steroids
Format: cell-based
Description: Incyte clones represent template sequences derived from the LWESEQ GOLD assembled human sequence database (Incyte Genomics). In cases where more than one clone was available for a particular template, the 5′-most clone in the template was used on the microarray. The HUMAN GENOME GEM series 1-4 microarrays (Incyte Genomics) contain 28,626 array elements which represent 10,068 annotated clusters and 18,558 unannotated clusters. For the UNIGEM series microarrays (Incyte Genomics), Incyte clones were mapped to non-redundant Unigene clusters (Unigene database (build 46), NCBI; Shuler (1997) J Mol Med 75:694-698), and the 5′ clone with the strongest BLAST alignment (at least 90% identity and 100 bp overlap) was chosen, verified, and used in the construction of the microarray. The UNIGEM V microarray (Incyte Genomics) contains 7075 array elements which represent 4610 annotated genes and 2,184 unannotated clusters.
To construct microarrays, cDNAs were amplified from bacterial cells using primers complementary to vector sequences flanking the cDNA insert. […] Amplified cDNAs were then purified using […]-400 columns (APB). Purified cDNAs were immobilized on polymer-coated glass slides. Glass microscope slides (Corning, Corning N.Y.) were cleaned by ultrasound in 0.1% SDS and acetone, with extensive distilled water washes between and after treatments. Glass slides were etched in 4% hydrofluoric acid (VWR Scientific Products, West Chester Pa.), washed thoroughly in distilled water, and coated with 0.05% aminopropyl silane (Sigma Aldrich) in 95% ethanol. Coated slides were cured in a 110° C. oven. cDNAs were applied to the coated glass substrate using a procedure described in U.S. Pat. No. 5,807,522. One microliter of the cDNA at an average concentration of 100 ng/μl was loaded into the open capillary printing element by a high-speed robotic apparatus which then deposited about 5 nl of cDNA per slide.
Microarrays were UV-crosslinked using a […] UV-crosslinker (Stratagene), and then washed at room temperature once in 0.2% SDS and three times in distilled water. Non-specific binding sites were blocked by incubation of microarrays in 0.2% casein in phosphate buffered saline (Tropix, Bedford Mich.) for 30 minutes at 60° C. followed by washes in 0.2% SDS and distilled water as before.
In all cases, mRNA from untreated early confluent C3A cells were prepared in parallel as described below.
Cells were harvested and lysed in 1 ml of TRIZOL reagent (5×10^6 cells/ml; Life Technologies). Lysates were vortexed thoroughly, incubated at room temperature for 2-3 minutes, and extracted with 0.5 ml chloroform. The extract was mixed, incubated at room temperature for 5 minutes, and centrifuged at 15,000 rpm for 15 minutes at 4° C. The aqueous layer was collected, and an equal volume of isopropanol was added. Samples were mixed, incubated at room temperature for 10 minutes, and centrifuged at 15,000 rpm for 20 minutes at 4° C. The supernatant was removed, and the RNA pellet was washed with 1 ml of 70% ethanol, centrifuged at 15,000 rpm at 4° C., and resuspended in RNAse-free water. The concentration of the RNA was determined by measuring the optical density at 260 nm.
Poly(A) RNA was prepared using an OLIGOTEX mRNA kit (Qiagen) with the following modifications: OLIGOTEX beads were washed in tubes instead of on spin columns, resuspended in elution buffer, and then loaded onto spin columns to recover mRNA. To obtain maximum yield, the mRNA was eluted twice.
Each poly(A) RNA sample was reverse transcribed using MMLV reverse-transcriptase, 0.05 pg/μl oligo-d(T) primer (21mer), 1× first strand buffer, 0.03 units/ul RNAse inhibitor, 500 uM dATP, 500 uM dGTP, 500 uM dTTP, 40 uM dCTP, and 40 uM either dCTP-Cy3 or dCTP-Cy5 (APB).

SMILES | Ave DE [log2] (C3A treated with steroid) (Clone ID 167081) | Ave DE [log2] (C3A treated with steroid) (Clone ID 1323327) | Ave DE [log2] (C3A treated with steroid) (Clone ID 1600180) | Ave DE [log2] (C3A treated with steroid) (Clone ID 1816768) | Ave DE [log2] (C3A treated with steroid) (Clone ID 2655279) | Ave DE [log2] (C3A treated with steroid) (Clone ID 2753065) | Ave DE [log2] (C3A treated with steroid) (Clone ID 3408804) | Ave DE [log2] (C3A treated with steroid) (Clone ID 3528232) | Ave DE [log2] (C3A treated with steroid) (Clone ID 3876612) | Ave DE [log2] (C3A treated with steroid) (Clone ID 2407620) | Ave DE [log2] (C3A treated with steroid) (Clone ID 3474091)
CC(=O)[C@H]1CC[C@H]2[C@@H]3CCC4=CC(=O)CC[C@]4(C)[C@H]3CC[C@]12C [progesterone] | −1.12 | 0.83 | 1.06 | 0.28 | −1.03 | 0.78 | −1.16 | 0.99 | 0.26 |  | 
C#C[C@]1(O)CC[C@H]2[C@@H]3CCC4=Cc5oncc5C[C@]4(C)[C@H]3CC[C@@]21C [donozol] |  |  |  |  |  |  |  |  |  | −0.26 | −0.29
